Test results: patent US20250325492A1, “IONIZABLE LIPIDS, LIPID NANOPARTICLES FOR MRNA DELIVERY AND METHODS OF MAKING THE SAME” (University of Cincinnati, priority 2022, published 2025)

Experiments:
human Jurkat T cells [1] = assay: In vitro mRNA transfection efficiency (eGFP fluorescence), flow cytometry; type: cell-based; conditions: 44-hour incubation; for transfection efficiency: 100 ng mRNA per well, eGFP fluorescence, FIG. 17B; for transfection efficiency, result in words: compared with the controls
Method: (§1) Flow cytometry was used to determine in vitro cellular uptake and transfection efficacy in human Jurkat T cells. The cells were seeded in a 96-well plate at a density of 40,000 cells/well. Different formulations containing 100 ng of mRNA were added to each well and were incubated for 44 hours at 37° C. The cells were washed and centrifuged at 300×g. The supernatant was discarded. After the cells were diluted in PBS, flow cytometry analysis was performed to quantify the amounts of cellular uptake and transfection efficiency.
(§2) LNPs with different compositions were tested against Jurkat cells for both cellular uptake and mRNA transfection efficiencies, as depicted in FIGS. 17A and 17B respectively. Human Jurkat cells are representative T lymphocytes which are known to be difficult to transfect. The LNPs were tested for cellular uptake using Cy5-labeled eGFP mRNA. Cy5 fluorescent dye was used to determine the cellular uptake while eGFP fluorescence was used to determine the transfection efficiency of the mRNA encapsulated in the different LNP formulations. After 44-hour incubation, fluorescence was measured using a flow cytometer. In Jurkat cells, the cellular uptake was ˜36% for the positive control, SM-102 while the transfection efficiency was ˜91%.

human Jurkat T cells [2] = assay: In vitro cellular uptake of Cy5-labeled eGFP mRNA LNPs, flow cytometry; type: cell-based; conditions: 44-hour incubation; for cellular uptake efficiency, result in words: compared with the controls
Method: as §1, §2

Row | SMILES | transfection efficiency (human Jurkat T cells [1]) [%] | transfection efficiency, result in words (human Jurkat T cells [1]) | cellular uptake efficiency, result in words (human Jurkat T cells [2]) | cellular uptake (human Jurkat T cells [2]; 100 ng mRNA per well, Cy5 fluorescence, FIG. 17A) [%]
1 | CCCCCCCCC(CCCCCC)COC(=O)CCCCCN(CCCCCC(=O)OCC(CCCCCC)CCCCCCCC)CCN(C)C (stereo not shown) [Control 2, 1,1′-bis(2-hexyldecyl) 6,6′-[[2-(dimethylamino)ethyl]imino]bis[hexanoate], reference compound] | 80 |  |  | 
2 | CCCCCCCCC(CCCCCC)COC(=O)CCCCCN(CCCCCC(=O)OCC(CCCCCC)CCCCCCCC)CCN(CCO)C1CCC1 (stereo not shown) [Lipid 1] | 59 |  |  | 
3 | CCCCCCCCC(CCCCCC)COC(=O)CCCCCN(CCCCCC(=O)OCC(CCCCCC)CCCCCCCC)CCN(CCN(C)C)C1CCC1 (stereo not shown) [Lipid 2, 2-hexyldecyl 6-[(2-{cyclobutyl[2-(dimethylamino)ethyl]amino}ethyl)({6-[(2-hexyldecyl)oxy]-6-oxohexyl})amino]hexanoate] | 92 | outperformed the controls | outperformed the controls | 
4 | CCCCCCCCC(CCCCCC)COC(=O)CCCCCN(CCCCCC(=O)OCC(CCCCCC)CCCCCCCC)CCN(CCCN(C)C)C1CCC1 (stereo not shown) [Lipid 3, 2-hexyldecyl 6-[(2-{cyclobutyl[3-(dimethylamino)propyl]amino}ethyl)({6-[(2-hexyldecyl)oxy]-6-oxohexyl})amino]hexanoate] | 78 | outperformed the controls | outperformed the controls | 
5 | CCCCCCCCCCCOC(=O)CCCCCN(CCO)CCCCCCCC(=O)OC(CCCCCCCC)CCCCCCCC [SM-102, reference compound] | ~91 |  |  | ~36
